Experiments:
Heme = assay: Inhibition of heme polymerization in Plasmodium falciparum after 15 min by liquid scintillation counting analysis in presence of [14C]-hemin chloride
Plasmodium falciparum [1] = assay: Antimalarial activity against chloroquine-sensitive Plasmodium falciparum 3D7 assessed as incorporation of [3H]hypoxanthine after 48 hr microdilution method; format: functional, organism-based
Plasmodium falciparum [2] = assay: Antimalarial activity against chloroquine-resistant Plasmodium falciparum K1 assessed as incorporation of [3H]hypoxanthine after 48 hr microdilution method; format: functional, organism-based

Oc1ccc(Nc2ccnc3cc(Cl)ccc23)cc1
IC50 (Heme): 19000 nM
IC50 (Plasmodium falciparum [1]): 1400 nM

COc1ccc2nc3cc(Cl)ccc3c(Nc3cc(CN4CCCC4)c(O)c(CN4CCCC4)c3)c2n1 [PYRONARIDINE]
IC50 (Heme): 64000 nM
IC50 (Plasmodium falciparum [2]): 9.1 nM
IC50 (Plasmodium falciparum [1]): 5.7 nM

CC(C)(C)NCc1cc(Nc2ccnc3cc(Cl)ccc23)ccc1O [N-TERT-BUTYL-AMODIAQUINE]
IC50 (Heme): 32000 nM
IC50 (Plasmodium falciparum [2]): 9.1 nM
IC50 (Plasmodium falciparum [1]): 5.5 nM

Oc1ccc(Nc2ccnc3cc(Cl)ccc23)cc1CN1CCCC1 [AMOPYROQUINE]
IC50 (Heme): 30000 nM
IC50 (Plasmodium falciparum [2]): 12 nM
IC50 (Plasmodium falciparum [1]): 5.3 nM

CCN(CC)CCCC(C)Nc1ccnc2cc(Cl)ccc12 (stereo unspecified) [CHLOROQUINE]
IC50 (Heme): 24000 nM

CCN(CC)Cc1cc(Nc2ccncc2)ccc1O
IC50 (Heme): 72000 nM
IC50 (Plasmodium falciparum [1]): 680 nM

O[C@@H](c1cc(C(F)(F)F)nc2c(C(F)(F)F)cccc12)[C@H]1CCCCN1 (relative stereo) [(S,R)-MEFLOQUINE]
IC50 (Heme): 47000 nM
IC50 (Plasmodium falciparum [2]): 9.4 nM
IC50 (Plasmodium falciparum [1]): 23 nM

CCN(CC)Cc1cc(Nc2ccnc3cc(Cl)ccc23)ccc1O
IC50 (Heme): 15000 nM
IC50 (Plasmodium falciparum [2]): 18 nM
IC50 (Plasmodium falciparum [1]): 7.8 nM

CCNCc1cc(Nc2ccnc3cc(Cl)ccc23)ccc1O [DESETHYL AMODIAQUINE]
IC50 (Heme): 43000 nM
IC50 (Plasmodium falciparum [2]): 39 nM
IC50 (Plasmodium falciparum [1]): 6.9 nM

CCN(CC)Cc1cc(Nc2ccnc3cc(Cl)ccc23)cc(-c2ccc(Cl)cc2)c1 [DEHYDROXY TEBAQUINE]
IC50 (Heme): 51000 nM
IC50 (Plasmodium falciparum [1]): 42 nM

CCN(CC)CCCC(C)Nc1ccncc1 (stereo unspecified)
IC50 (Heme): 92000 nM
IC50 (Plasmodium falciparum [2]): 15000 nM
IC50 (Plasmodium falciparum [1]): 12000 nM

C=C[C@H]1CN2CC[C@H]1C[C@H]2[C@H](O)c1ccnc2ccc(OC)cc12 [QUININE]
IC50 (Heme): 65000 nM
IC50 (Plasmodium falciparum [1]): 34 nM

CCCCN(CCCC)CCC(O)c1cc2c(Cl)cc(Cl)cc2c2cc(C(F)(F)F)ccc12 (stereo unspecified) [HALOFANTRINE]
IC50 (Heme): 180000 nM
IC50 (Plasmodium falciparum [2]): 2.8 nM
IC50 (Plasmodium falciparum [1]): 5.8 nM

C=C[C@H]1CN2CC[C@H]1C[C@H]2[C@H](O)c1ccnc2ccccc12 [CINCHONIDINE]
IC50 (Heme): 27000 nM
IC50 (Plasmodium falciparum [2]): 91 nM
IC50 (Plasmodium falciparum [1]): 40 nM

C=C[C@H]1CN2CC[C@H]1C[C@@H]2[C@@H](O)c1ccnc2ccccc12 [CINCHONINE]
IC50 (Heme): 23000 nM
IC50 (Plasmodium falciparum [2]): 56 nM
IC50 (Plasmodium falciparum [1]): 21 nM

CC(CCCN)Nc1ccnc2cc(Cl)ccc12 (stereo unspecified) [BIDESETHYL CHLOROQUINE]
IC50 (Heme): 58000 nM
IC50 (Plasmodium falciparum [1]): 55 nM

CCN(CC)CCCC(C)Nc1c2ccc(Cl)cc2nc2ccc(OC)cc12 (stereo unspecified) [QUINACRINE]
IC50 (Heme): 41000 nM
IC50 (Plasmodium falciparum [1]): 13 nM

CCN(CC)Cc1cc(Nc2ccnc3cc(Cl)ccc23)cc(-c2ccc(Cl)cc2)c1O [TEBAQUINE]
IC50 (Heme): 53000 nM
IC50 (Plasmodium falciparum [2]): 13 nM
IC50 (Plasmodium falciparum [1]): 9.5 nM

CC(CCCN1CCCC1)Nc1ccnc2cc(Cl)ccc12 (stereo unspecified) [Chloroquine-pyrolidinyl]
IC50 (Heme): 44000 nM
IC50 (Plasmodium falciparum [1]): 19 nM

NCc1cc(Nc2ccnc3cc(Cl)ccc23)ccc1O [BIDESETHYL AMODIAQUINE]
IC50 (Heme): 73000 nM
IC50 (Plasmodium falciparum [2]): 170 nM
IC50 (Plasmodium falciparum [1]): 21 nM

C=C[C@H]1CN2CC[C@H]1C[C@@H]2[C@@H](O)c1ccnc2ccc(OC)cc12 [QUINIDINE]
IC50 (Heme): 24000 nM
IC50 (Plasmodium falciparum [1]): 21 nM

CCNCCCC(C)Nc1ccnc2cc(Cl)ccc12 (stereo unspecified) [DESETHYLCHLOROQUINE]
IC50 (Heme): 45000 nM
IC50 (Plasmodium falciparum [2]): 720 nM
IC50 (Plasmodium falciparum [1]): 19 nM

Reference: ChEMBL document CHEMBL3044897, “Pharmacophore-based predictive model generation for potent antimalarials targeting haem detoxification pathway” (Med Chem Res, 2007)
